Test system: ASD phenotype 1 lymphoblastoid cell lines
Experiment: Biolog Phenotype Mammalian MicroArrays (PM-M): NADH production, colorimetric redox dye
Format: cell-based, human
Conditions: cells exposed to the substance; AUC and endpoint absorbance
Procedure: From all subjects, blood samples were collected and lymphoblastoid cell lines generated. Briefly, tubes containing anticoagulant citrate dextrose (ACD) were used to collect blood samples via venipuncture, in order to ensure that the blood cells remained metabolically active. The tubes were kept at room temperature and processed within 24 hours.
Cell lines were obtained by immortalization of lymphocytes from blood samples using Epstein-Barr virus.
Energy production of cells was measured using commercially available Phenotype Mammalian MicroArrays (PM-Ms, Biolog, Hayward, Calif., USA).
The compound in each well was designed to be used by the cells, either as the sole energy source or as the metabolic effector influencing the utilization of an energy source (α-D-glucose) added in the cell suspension. […] Before plating, cell viability and number were assessed utilizing a BioRad cell counter and a trypan blue dye. The concentration of live cells required for plating was 4×10^5 cells/mL, corresponding to 20,000 cells per well in a volume of 50 μL. […] Cells were incubated for 48 h at 37° C. in 5% CO2, using the modified Biolog IF-M1 medium.
The Biolog IF-M1 medium was modified for plates PM-M1 to M4 by adding the following to 100 mL of Biolog IF-M1: 1.1 mL of 100× penicillin/streptomycin solution, 0.16 mL of 200 mM glutamine (final concentration 0.3 mM), and 5.3 mL of Fetal Bovine Serum (FBS, final concentration 5%). For plates PM-M5 to M8, 5.5 mM α-D-glucose will be added in place of FBS.
During the 48-hour incubation, the only energy source the cells had was the chemical in the well. After this first incubation, Biolog Redox Dye Mix MB was added (10 μL/well) and the plates were incubated under the same conditions for an additional 24 hours. As the cells metabolized the energy source, tetrazolium dye in the media was reduced, producing a purple color according to the amount of NADH generated.
For the last 24 hours of the experiment, the plates were incubated in the Omnilog system, which collects optical density readings every 15 minutes, generating 96 data-points for each well. The system also elaborated the kinetic curve for the metabolic reaction in each well and extrapolated parameters such as slope, highest point, endpoint, area under the curve (AUC), and lag.
At the end of the 24-hour incubation, the plates were analyzed utilizing a microplate reader with readings at 590 and 750 nm. The first value (A590) indicated the highest absorbance peak of the redox dye and the second value (A750) gave a measure of the background noise. The relative absorbance (A590-750) was calculated per well.

Substance	production of NADH in ASD phenotype 1 cells compared to TDs and non-phenotype 1 cells
FGF-1(aFGF): growth factor that selectively targets the PI3K-Akt-mTOR by binding the receptor tyrosine kinase	significantly reduced production of NADH
IGF-I: insulin-like growth factor 1; targets less specifically the PI3K-AKT-mTOR pathway in LCLs	no significant differences
IL-1beta: Th1 cytokine	significantly lower levels of NADH
IL-6: Th1 cytokine	significantly lower levels of NADH
PDGF-AB: platelet-derived growth factor AB	no significant differences
hGH(Somatotropin): growth factor that selectively targets the PI3K-Akt-mTOR by binding the receptor tyrosine kinase	significantly reduced production of NADH

From patent publication US11040117B2, “Treatment of a subtype of ASD” (Stalicla S.A., priority 2017, dated 2021)
